In ChEMBL document CHEMBL1135008, “17S,20S-Methanofusidic acid, a new potent semi-synthetic fusidane antibiotic” (2002):
≈ marks a conversion by molar mass, not a printed value.

Tests used:
Type in all cases: functional
[1] = tested on: Corynebacterium xerosis; experiment: Compound was tested for its antibacterial activity against Corynebacterium xerosis NCTC 9755
[2] = tested on: Enterococcus faecalis; experiment: Compound was tested for its antibacterial activity against Enterococcus faecalis ATCC 10541
[3] = tested on: Staphylococcus aureus; experiment: Compound was tested for its antibacterial activity against Staphylococcus aureus CJ 232 (MRSA)
[4] = tested on: Geobacillus stearothermophilus; experiment: Compound was tested for its antibacterial activity against Bacillus stearothermophilus KG 5
[5] = tested on: Clostridium perfringens; experiment: Compound was tested for its antibacterial activity against Clostridium perfringens KT 13
[6] = tested on: Streptococcus sp.; experiment: Compound was tested for its antibacterial activity against Streptococcus sp. EF 6
[7] = tested on: Lactiplantibacillus plantarum; experiment: Compound was tested for its antibacterial activity against Lactobacillus plantarum ATCC 8014
[8] = tested on: Micrococcus luteus; experiment: Compound was tested for its antibacterial activity against Micrococcus luteus ATCC 9341
[9] = tested on: Bacillus cereus; experiment: Compound was tested for its antibacterial activity against Bacillus cereus ATCC 10876
[10] = tested on: Streptococcus sp.; experiment: Compound was tested for its antibacterial activity against Streptococcus sp. EG 14
[11] = tested on: Enterococcus faecium; experiment: Compound was tested for its antibacterial activity against Enterococcus faecium EI 119, penicillin resistant
[12] = tested on: Cutibacterium acnes; experiment: Compound was tested for its antibacterial activity against Propionibacterium acnes NCTC 737
[13] = tested on: Staphylococcus epidermidis; experiment: Compound was tested for its antibacterial activity against Staphylococcus epidermidis ATCC 12228
[14] = tested on: Pseudomonas aeruginosa; experiment: Compound was tested for its antibacterial activity against Pseudomonas aeruginosa ATCC 10145
[15] = tested on: Streptococcus pyogenes; experiment: Compound was tested for its antibacterial activity against Streptococcus pyogenes EC
[16] = tested on: Escherichia coli; experiment: Compound was tested for its antibacterial activity against Escherichia coli HA 44
[17] = tested on: Staphylococcus aureus; experiment: Compound was tested for its antibacterial activity against Staphylococcus aureus ATCC 2977
[18] = tested on: Staphylococcus epidermidis; experiment: Antimicrobial evaluation revealed potent activity against several Gram positive bacteria (Staphylococcus epidermidis ATCC 12228)

Structure (SMILES)	MIC [1]	MIC [2]	MIC [3]	MIC [4]	MIC [5]	MIC [6]	MIC [7]	MIC [8]	MIC [9]	MIC [10]	MIC [11]	MIC [12]	MIC [13]	MIC [14]	MIC [15]	MIC [16]	MIC [17]	MIC [18]
CC(=O)O[C@H]1C[C@@]2(C)C(C[C@@H](O)[C@H]3[C@@]4(C)CC[C@@H](O)[C@@H](C)[C@@H]4CC[C@@]32C)/C1=C(\CCC=C(C)C)C(=O)O (some centres undefined)	0.04 µg/mL (≈ 0.0774 µM)	4 µg/mL (≈ 7.74 µM)	0.015 µg/mL (≈ 0.029 µM)	0.03 µg/mL (≈ 0.0581 µM)	16 µg/mL (≈ 31 µM)	4 µg/mL (≈ 7.74 µM)	4 µg/mL (≈ 7.74 µM)	1 µg/mL (≈ 1.94 µM)	4 µg/mL (≈ 7.74 µM)	16 µg/mL (≈ 31 µM)	0.02 µg/mL (≈ 0.0387 µM)	0.02 µg/mL (≈ 0.0387 µM)	0.001 µg/mL (≈ 0.00194 µM)	1 µg/mL (≈ 1.94 µM)	4 µg/mL (≈ 7.74 µM)	> 125 µg/mL	0.006 µg/mL (≈ 0.0116 µM)	–
CC(=O)O[C@H]1C[C@@]2(C)C(C[C@@H](O)[C@H]3[C@@]4(C)CC[C@@H](O)[C@@H](C)C4CC[C@@]32C)[C@]12C[C@]2(CCC=C(C)C)C(=O)O (some centres undefined)	0.04 µg/mL (≈ 0.0754 µM)	16 µg/mL (≈ 30.1 µM)	0.014 µg/mL (≈ 0.0264 µM)	0.03 µg/mL (≈ 0.0565 µM)	16 µg/mL (≈ 30.1 µM)	16 µg/mL (≈ 30.1 µM)	63 µg/mL (≈ 119 µM)	0.25 µg/mL (≈ 0.471 µM)	1 µg/mL (≈ 1.88 µM)	63 µg/mL (≈ 119 µM)	0.02 µg/mL (≈ 0.0377 µM)	0.02 µg/mL (≈ 0.0377 µM)	–	1 µg/mL (≈ 1.88 µM)	16 µg/mL (≈ 30.1 µM)	> 125 µg/mL	0.003 µg/mL (≈ 0.00565 µM)	0.001 µg/mL (≈ 0.00188 µM)
